Assay results: patent US20210024507A1, “Compounds” (Step Pharma S.A.S., priority 2018, published 2021)

Tested on: human CTPS1
Assay: RapidFire/MS-based enzyme selectivity assay, human CTPS1
Format: biochemical
Settings: calculated from the CTPS1 and CTPS2 IC50 values
Experimental: The enzyme inhibitory activities against each target isoform of interest may be determined for the compounds of the invention using an optimised RapidFire high-throughput mass spectrometry (RF/MS) assay format. RF/MS assays for both human CTPS1 and CTPS2 may be performed in assay buffer consisting of 50mM HEPES (Merck), 20mM MgCl2, 5mM KCI, 1mM DTT, 0.01% Tween-20, pH to 8.0 accordingly. Human full-length active C-terminal FLAG-His-tag CTPS1 (UniProtKB - P17812, CTPS[1-591]-[…]) may be obtained from Proteros biostructures GmbH. Human full length active C-terminal FLAG-His-Avi tagged CTPS2 (UniProtKB-Q9NRF8, CTPS2 [1-586]- […]) may be obtained from Harker Bio.
Human CTPS (1 or 2) protein may be prepared in lx assay buffer to the final working protein concentration required for the reaction. A 2uL volume per well of 2× CTPS (1 or 2) protein may be mixed with 40nL of compound using acoustic (ECHO) delivery and incubated for 10 minutes at 25° C. Each isoform enzymatic reaction may be subsequently initiated by addition of 2uL per well of a 2× substrate mix in assay buffer. For hCTPS1: ATP (0.3mM), UTP (0.2mM), GTP (0.07mM) and L-glutamine (0.1mM). For hCTPS2: ATP (0.1mM), UTP (0.04mM), GTP (0.03mM) and L-glutamine (0.1mM). Each mixture may be incubated for an appropriate amount of time per isoform within the determined linear phase of the reaction at 25° C. A 60uL volume of stop solution (1% formic acid with 0.5uM ^13C9-^15N3-CTP in H2O) may be added and the plate immediately heat-sealed and centrifuged for 10 minutes at 4,000rpm. Following centrifugation, plates may be loaded onto the Agilent RapidFire microfluidic solid phase extraction system coupled to an AP14000 triple quadrupole mass spectrometer (RF/MS) for analysis.
In all cases, the enzyme converts UTP to CTP. Highly specific and sensitive multiple reaction monitoring (MRM) MS methods may be optimised for the detection of the enzymatic reaction product, CTP, and the stable isotope labelled product standard ^13C9-^15N3-CTP. Readout for data analysis may be calculated as the ratio between the peak area of the product CTP and the internal standard ^13C9-^15N3-CTP. For data reporting, the following equation may be used:
[formula] (R=ratio/readout, P=product signal area, IS=internal standard signal area)
For each screening plate, the means of the negative (DMSO) and positive control values were used for the calculation of the respective assay window (S/B) and Z′ values. The median of the respective control values was used for calculation of percent inhibition according to the following equation:
[formula] (I=Inhibition, Rneg=median of negative control readout values, Rpos=median of positive control readout values, Rsample=sample readout value)
Percentage inhibition was then plotted against compound concentration, and the 50% inhibitory concentration (IC50) was determined from the resultant concentration-response curve.
Fold selectivity between CTPS1 and CTPS2 was subsequently calculated according to the following equation: […]

SMILES	Selectivity (fold selectivity between CTPS1 and CTPS2)
CCOc1cncc(-c2ccc(NC(=O)C(C)(OC)c3cncc(NS(=O)(=O)C4CC4)n3)nc2)n1 (single isomer, unassigned) [P205a, 2-(6-(cyclopropanesulfonamido)pyrazin-2-yl)-N-(5-(6-ethoxypyrazin-2-yl)pyridin-2-yl)-2-methoxypropanamide]	+++ (>60 fold (+++))
CCOc1cncc(-c2ccc(NC(=O)C(C)(OC)c3cncc(NS(=O)(=O)C4CC4)n3)nc2)n1 (single isomer, unassigned) [P205b, 2-(6-(cyclopropanesulfonamido)pyrazin-2-yl)-N-(5-(6-ethoxypyrazin-2-yl)pyridin-2-yl)-2-methoxypropanamide]	++ (>30-60 fold (++))
CCOc1cncc(-c2ccc(NC(=O)C3(c4ccnc(NS(=O)(=O)C5CC5)n4)CCCC3)cc2)n1 [P2, 1-(2-(Cyclopropanesulfonamido)pyrimidin-4-yl)-N-(4-(6-ethoxypyrazin-2-yl)phenyl)cyclopentanecarboxamide]	+++ (>60 fold (+++))
CC(C)Oc1cncc(-c2ccc(NC(=O)C(C)(C)c3ccnc(NS(=O)(=O)C4CC4)n3)nc2)n1 [P9, 2-(2-(cyclopropanesulfonamido)pyrimidin-4-yl)-N-(5-(6-isopropoxypyrazin-2-yl)pyridin-2-yl)-2-methylpropanamide]	+++ (>60 fold (+++))
CC(C)Oc1cncc(-c2ccc(NC(=O)Cc3ccnc(NS(=O)(=O)C4CC4)n3)c(F)c2)n1 [P12, 2-(2-(cyclopropanesulfonamido)pyrimidin-4-yl)-N-(2-fluoro-4-(6-isopropoxypyrazin-2-yl)phenyl)acetamide]	++ (>30-60 fold (++))
O=C(Cc1ccnc(NS(=O)(=O)C2CC2)n1)Nc1ccc(-c2cccnc2)cc1 [P16, 2-(2-(cyclopropanesulfonamido)pyrimidin-4-yl)-N-(4-(pyridin-3-yl)phenyl)acetamide]	++ (>30-60 fold (++))
CCOc1cncc(-c2ccc(NC(=O)Cc3ccnc(NS(=O)(=O)C4CC4)n3)cc2)n1 [P18, 2-(2-(cyclopropanesulfonamido)pyrimidin-4-yl)-N-(4-(6-ethoxypyrazin-2-yl)phenyl)acetamide]	++ (>30-60 fold (++))
CC(C)Oc1cncc(-c2ccc(NC(=O)Cc3ccnc(NS(=O)(=O)C4CC4)n3)cc2)n1 [P21, 2-(2-(cyclopropanesulfonamido)pyrimidin-4-yl)-N-(4-(6-isopropoxypyrazin-2-yl)phenyl)acetamide]	++ (>30-60 fold (++))
CCOc1cncc(-c2ccc(NC(=O)C(C)(C)c3ccnc(NS(=O)(=O)C4CC4)n3)nc2)n1 [P31, 2-(2-(cyclopropanesulfonamido)pyrimidin-4-yl)-N-(5-(6-ethoxypyrazin-2-yl)pyridin-2-yl)-2-methylpropanamide]	+++ (>60 fold (+++))
CCOc1cncc(-c2ccc(NC(=O)C(C)(C)c3ccnc(NS(=O)(=O)C4CC4)n3)c(C#N)c2)n1 [P34, N-(2-cyano-4-(6-ethoxypyrazin-2-yl)phenyl)-2-(2-(cyclopropanesulfonamido)pyrimidin-4-yl)-2-methylpropanamide]	+ (2-30 fold (+))
CCOc1cncc(-c2ccc(NC(=O)C(C)(C)c3ccnc(NS(=O)(=O)C4CC4)n3)c(F)c2)n1 [P38, 2-(2-(cyclopropanesulfonamido)pyrimidin-4-yl)-N-(4-(6-ethoxypyrazin-2-yl)-2-fluorophenyl)-2-methylpropanamide]	+ (2-30 fold (+))
CC(C)Oc1cncc(-c2ccc(NC(=O)C(C)(C)c3ccnc(NS(=O)(=O)C4CC4)n3)c(F)c2)n1 [P39, 2-(2-(cyclopropanesulfonamido)pyrimidin-4-yl)-N-(2-fluoro-4-(6-isopropoxypyrazin-2-yl)phenyl)-2-methylpropanamide]	+ (2-30 fold (+))
CC(C)(C(=O)Nc1ccc(-c2cccnc2)cc1)c1ccnc(NS(=O)(=O)C2CC2)n1 [P59, 2-(2-(cyclopropanesulfonamido)pyrimidin-4-yl)-2-methyl-N-(4-(pyridin-3-yl)phenyl)propanamide]	+ (2-30 fold (+))
CCOc1cncc(-c2ccc(NC(=O)C(C)(C)c3ccnc(NS(=O)(=O)C4CC4)n3)cc2)n1 [P65, 2-(2-(cyclopropanesulfonamido)pyrimidin-4-yl)-N-(4-(6-ethoxypyrazin-2-yl)phenyl)-2-methylpropanamide]	++ (>30-60 fold (++))
CCOc1cncc(-c2ccc(NC(=O)C(C)(C)c3nc(NS(=O)(=O)C4CC4)ncc3F)cc2)n1 [P68, 2-(2-(cyclopropanesulfonamido)-5-fluoropyrimidin-4-yl)-N-(4-(6-ethoxypyrazin-2-yl)phenyl)-2-methylpropanamide]	++ (>30-60 fold (++))
CCOc1cncc(-c2ccc(NC(=O)C(C)(C)c3nc(NS(=O)(=O)C4CC4)ncc3C)cc2)n1 [P70, 2-(2-(cyclopropanesulfonamido)-5-methylpyrimidin-4-yl)-N-(4-(6-ethoxypyrazin-2-yl)phenyl)-2-methylpropanamide]	+ (2-30 fold (+))
CCOc1cncc(-c2ccc(NC(=O)C(C)(C)c3ccnc(NS(=O)(=O)CC)n3)cc2)n1 [P74, N-(4-(6-ethoxypyrazin-2-yl)phenyl)-2-(2-(ethylsulfonamido)pyrimidin-4-yl)-2-methylpropanamide]	++ (>30-60 fold (++))
CCOc1cncc(-c2ccc(NC(=O)C(C)(C)c3ccnc(NS(C)(=O)=O)n3)nc2)n1 [P76, N-(5-(6-ethoxypyrazin-2-yl)pyridin-2-yl)-2-methyl-2-(2-(methylsulfonamido)pyrimidin-4-yl)propanamide]	++ (>30-60 fold (++))
CCOc1cncc(-c2ccc(NC(=O)C3(c4ccnc(NS(=O)(=O)C5CC5)n4)CC3)cc2)n1 [P83, 1-(2-(cyclopropanesulfonamido)pyrimidin-4-yl)-N-(4-(6-ethoxypyrazin-2-yl)phenyl)cyclopropanecarboxamide]	+++ (>60 fold (+++))
CCOc1cncc(-c2ccc(NC(=O)C3(c4ccnc(NS(=O)(=O)C5CC5)n4)CCOCC3)nc2)n1 [P115, 4-(2-(cyclopropanesulfonamido)pyrimidin-4-yl)-N-(5-(6-ethoxypyrazin-2-yl)pyridin-2-yl)tetrahydro-2H-pyran-4-carboxamide]	+++ (>60 fold (+++))
CCOc1cncc(-c2ccc(C(=O)NCc3ccnc(NS(=O)(=O)C4CC4)n3)cc2)n1 [P118, N-((2-(cyclopropanesulfonamido)pyrimidin-4-yl)methyl)-4-(6-ethoxypyrazin-2-yl)benzamide]	+++ (>60 fold (+++))
CC(C)(C(=O)Nc1ccc(-c2cncc(C3CC3)n2)cn1)c1ccnc(NS(=O)(=O)C2CC2)n1 [P125, 2-(2-(cyclopropanesulfonamido)pyrimidin-4-yl)-N-(5-(6-cyclopropylpyrazin-2-yl)pyridin-2-yl)-2-methylpropanamide]	++ (>30-60 fold (++))
CCOc1cncc(-c2ccc(NC(=O)C3(c4ccnc(NS(=O)(=O)C5CC5)n4)CCCC3)nc2)n1 [P136, 1-(2-(cyclopropanesulfonamido)pyrimidin-4-yl)-N-(5-(6-ethoxypyrazin-2-yl)pyridin-2-yl)cyclopentane-1-carboxamide]	+++ (>60 fold (+++))
CCOc1cncc(-c2ccc(NC(=O)C3(c4ccnc(NS(=O)(=O)C5CC5)n4)CCOCC3)c(F)c2)n1 [P143, 4-(2-(cyclopropanesulfonamido)pyrimidin-4-yl)-N-(4-(6-ethoxypyrazin-2-yl)-2-fluorophenyl)tetrahydro-2H-pyran-4-carboxamide]	+++ (>60 fold (+++))
CCOc1cncc(-c2ccc(NC(=O)C(CCOC)c3ccnc(NS(=O)(=O)C4CC4)n3)nc2)n1 (stereo not shown) [P145, 2-(2-(cyclopropanesulfonamido)pyrimidin-4-yl)-N-(5-(6-ethoxypyrazin-2-yl)pyridin-2-yl)-4-methoxybutanamide]	+++ (>60 fold (+++))
